Source: PubChem BioAssay AID248 (DTP/NCI, 2004)
Toxic doses and inconclusive results are not listed. Cut-off read from the data, not from the text of the source: active = T/C of 150% or more; inactive = T/C below 125%.

Tested on: L1210 leukemia ip in BDF1 mice, survival T/C
Test: NCI In Vivo Anticancer Drug Screen. Data for tumor model L1210 Leukemia (intraperitoneal) in B6D2F1 (BDF1) mice
Details: endpoint: mean survival time, higher = longer survival
Procedure, shortened: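 Each compound was tested against a transplantable tumor grown in mice. The endpoint was survival, with treated animals benchmarked against vehicle controls as a simple ratio.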

[1] = dose: 100.0 mg/kg/injection, schedule: Q01DX009 (ip), vehicle: Klucel (hydroxypropylcellulose) (HPC)
[2] = dose: 100.0 mg/kg/injection, schedule: Q04DX003 (ip), vehicle: Klucel (hydroxypropylcellulose) (HPC)
[3] = dose: 200.0 mg/kg/injection, schedule: Q01DX009 (ip), vehicle: Klucel (hydroxypropylcellulose) (HPC)
[4] = dose: 200.0 mg/kg/injection, schedule: Q04DX003 (ip), vehicle: Klucel (hydroxypropylcellulose) (HPC)
[5] = dose: 400.0 mg/kg/injection, schedule: Q01DX009 (ip), vehicle: Klucel (hydroxypropylcellulose) (HPC)
[6] = dose: 400.0 mg/kg/injection, schedule: Q04DX003 (ip), vehicle: Klucel (hydroxypropylcellulose) (HPC)
[7] = dose: 50.0 mg/kg/injection, schedule: Q01DX001 (ip), vehicle: saline
[8] = dose: 100.0 mg/kg/injection, schedule: Q01DX001 (ip), vehicle: saline
[9] = dose: 50.0 mg/kg/injection, schedule: Q04DX003 (ip), vehicle: saline

Measured: T/C

CCC(CC)(COC(=O)c1ccc(N)cc1)C1CCCCC1
inactive: dose: 150.0 mg/kg/injection, schedule: Q01DX001 (ip), vehicle: carboxymethylcellulose (CMC) 94 % of control

Cc1nc(Cl)c2c(n1)Oc1nc(C)nc(Cl)c1C2c1ccc(Cl)cc1
inactive: dose: 50.0 mg/kg/injection, schedule: Q04DX003 (ip), vehicle: Klucel (hydroxypropylcellulose) (HPC) 97 % of control | [1] 96 % of control | [2] 97 % of control | [3] 97 % of control | [4] 101 % of control | [5] 107 % of control | [6] 95 % of control

CC(NP1(=O)OCC(C)(N)CO1)c1ccccc1 (stereo not drawn)
inactive: [7] 108 % of control | [8] 102 % of control | dose: 200.0 mg/kg/injection, schedule: Q01DX001 (ip), vehicle: saline 106 % of control | dose: 400.0 mg/kg/injection, schedule: Q01DX001 (ip), vehicle: saline 93 % of control

CCOc1c(/C=N/NC(=O)c2ccccc2OC)cccc1OC
inactive: [1] 116 % of control | [2] 102 % of control | [3] 95 % of control | [4] 105 % of control | [6] 107 % of control

O=C(NC1=NCCS1)C(=O)NC1=NCCS1
inactive: dose: 100.0 mg/kg/injection, schedule: Q04DX003 (ip), vehicle: saline with Tween-80 105 % of control | dose: 200.0 mg/kg/injection, schedule: Q04DX003 (ip), vehicle: saline with Tween-80 100 % of control | dose: 400.0 mg/kg/injection, schedule: Q04DX003 (ip), vehicle: saline with Tween-80 97 % of control

CC1CN=C(c2ccc(N)cc2)S1 (stereo not drawn)
inactive: dose: 87.0 mg/kg/injection, schedule: Q04DX003 (ip), vehicle: Klucel (hydroxypropylcellulose) (HPC) 94 % of control | dose: 175.0 mg/kg/injection, schedule: Q04DX003 (ip), vehicle: Klucel (hydroxypropylcellulose) (HPC) 105 % of control

Cc1cc(N=NC(=N)N)ccc1NN=C(N)N
inactive: dose: 37.5 mg/kg/injection, schedule: Q01DX Z (oral), vehicle: carboxymethylcellulose (CMC) 115 % of control | dose: 75.0 mg/kg/injection, schedule: Q01DX Z (oral), vehicle: carboxymethylcellulose (CMC) 100 % of control | dose: 150.0 mg/kg/injection, schedule: Q01DX Z (oral), vehicle: carboxymethylcellulose (CMC) 96 % of control | dose: 300.0 mg/kg/injection, schedule: Q01DX Z (oral), vehicle: carboxymethylcellulose (CMC) 102 % of control

Clc1ccc([PH+](c2ccc(Cl)cc2)c2ccc(Cl)cc2)cc1.Clc1ccc([PH+](c2ccc(Cl)cc2)c2ccc(Cl)cc2)cc1.[Cl][Hg][Cl]
inactive: dose: 6.25 mg/kg/injection, schedule: Q01DX009 (ip), vehicle: Klucel (hydroxypropylcellulose) (HPC) 108 % of control | dose: 12.5 mg/kg/injection, schedule: Q01DX009 (ip), vehicle: Klucel (hydroxypropylcellulose) (HPC) 94 % of control | dose: 25.0 mg/kg/injection, schedule: Q01DX009 (ip), vehicle: Klucel (hydroxypropylcellulose) (HPC) 97 % of control | dose: 50.0 mg/kg/injection, schedule: Q01DX009 (ip), vehicle: Klucel (hydroxypropylcellulose) (HPC) 96 % of control

CC(=O)CCC(=O)NC(C)C
inactive: dose: 100.0 mg/kg/injection, schedule: Q04DX002 (ip), vehicle: saline with Tween-80 102 % of control | dose: 200.0 mg/kg/injection, schedule: Q04DX002 (ip), vehicle: saline with Tween-80 102 % of control | dose: 400.0 mg/kg/injection, schedule: Q04DX002 (ip), vehicle: saline with Tween-80 117 % of control

CCOCC(=O)c1c(O)cc(O)cc1O
inactive: [1] 97 % of control | [3] 92 % of control | [5] 101 % of control

C[N+](C)(C)CCCCCC[Si](C)(C)C
inactive: dose: 5.0 mg/kg/injection, schedule: Q01DX001 (ip), vehicle: saline 110 % of control | dose: 10.0 mg/kg/injection, schedule: Q01DX001 (ip), vehicle: saline 108 % of control | dose: 20.0 mg/kg/injection, schedule: Q01DX001 (ip), vehicle: saline 104 % of control | dose: 40.0 mg/kg/injection, schedule: Q01DX001 (ip), vehicle: saline 108 % of control

FC(F)(F)c1ccc2c(c1)N(CCCN1CCN(CCOCCCl)CC1)c1ccccc1S2
inactive: dose: 0.19 mg/kg/injection, schedule: Q01DX009 (ip), vehicle: saline 104 % of control | dose: 0.39 mg/kg/injection, schedule: Q01DX009 (ip), vehicle: saline 94 % of control | dose: 0.78 mg/kg/injection, schedule: Q01DX009 (ip), vehicle: saline 98 % of control | dose: 1.17 mg/kg/injection, schedule: Q04DX003 (ip), vehicle: saline 101 % of control | dose: 1.56 mg/kg/injection, schedule: Q01DX009 (ip), vehicle: saline 107 % of control | dose: 2.34 mg/kg/injection, schedule: Q04DX003 (ip), vehicle: saline 95 % of control | dose: 3.12 mg/kg/injection, schedule: Q01DX009 (ip), vehicle: saline 89 % of control | dose: 4.68 mg/kg/injection, schedule: Q04DX003 (ip), vehicle: saline 98 % of control | dose: 6.25 mg/kg/injection, schedule: Q04DX003 (ip), vehicle: saline 108 % of control | dose: 9.9 mg/kg/injection, schedule: Q01DX001 (ip), vehicle: saline 97 % of control | dose: 12.5 mg/kg/injection, schedule: Q04DX003 (ip), vehicle: saline 119 % of control | dose: 15.0 mg/kg/injection, schedule: Q01DX001 (ip), vehicle: saline 102 % of control | dose: 22.5 mg/kg/injection, schedule: Q01DX001 (ip), vehicle: saline 103 % of control | dose: 25.0 mg/kg/injection, schedule: Q04DX003 (ip), vehicle: saline 122 % of control | [9] 90 % of control

CCn1ccc2c(N)ncnc21
inactive: [7] 95 % of control

CON=C1CCC(C(C)(C)C)CC1 (stereo not drawn)
inactive: dose: 75.0 mg/kg/injection, schedule: Q01DX001 (ip), vehicle: carboxymethylcellulose (CMC) 106 % of control

O=C(O)C1C=CCC2C(=O)OC(=O)C12 (stereo not drawn)
inactive: dose: 75.0 mg/kg/injection, schedule: Q01DX001 (ip), vehicle: saline 102 % of control | dose: 150.0 mg/kg/injection, schedule: Q01DX001 (ip), vehicle: saline 102 % of control | dose: 300.0 mg/kg/injection, schedule: Q01DX001 (ip), vehicle: saline 96 % of control

CN=C1CC2CCC(C2)C1(O)c1ccccc1 (stereo not drawn)
inactive: [8] 101 % of control

C=CCOCC1CO1 (stereo not drawn)
inactive: dose: 75.0 mg/kg/injection, schedule: Q01DX001 (ip), vehicle: acetone 101 % of control | dose: 150.0 mg/kg/injection, schedule: Q01DX001 (ip), vehicle: acetone 97 % of control | dose: 300.0 mg/kg/injection, schedule: Q01DX001 (ip), vehicle: acetone 105 % of control

CCOC(=O)N1CCc2nc3ccccc3cc21
inactive: dose: 50.0 mg/kg/injection, schedule: Q01DX009 (ip), vehicle: other 100 % of control | dose: 100.0 mg/kg/injection, schedule: Q01DX009 (ip), vehicle: other 90 % of control | dose: 200.0 mg/kg/injection, schedule: Q01DX009 (ip), vehicle: other 93 % of control

CC(N)(C(=O)O)c1ccccc1 (stereo not drawn)
inactive: [9] 96 % of control | dose: 100.0 mg/kg/injection, schedule: Q04DX003 (ip), vehicle: saline 89 % of control | dose: 200.0 mg/kg/injection, schedule: Q04DX003 (ip), vehicle: saline 102 % of control

C[N+]1(CCCl)CCOCC1
inactive: dose: 20.0 mg/kg/injection, schedule: Q01DX009 (ip), vehicle: Klucel (hydroxypropylcellulose) (HPC) 97 % of control | dose: 40.0 mg/kg/injection, schedule: Q01DX009 (ip), vehicle: Klucel (hydroxypropylcellulose) (HPC) 102 % of control

CCOC(=O)CCCN(c1ccccc1CC(=O)OCC)S(C)(=O)=O
inactive: [1] 103 % of control | [2] 102 % of control | [3] 94 % of control | [4] 112 % of control | [5] 97 % of control | [6] 100 % of control
